This data set can be described thus: Spectroscopic measurements (absorption, emission, quantum yield, extinction coefficient). The format is physicochemical. The settings on record: BDNCA library; for Abs: absorption; for Flu-Abs: difference emission minus absorption; for ε: extinction coefficient, in M-1 cm-1 (unit assumed); for Flu: fluorescence emission.

SMILES strings stand for the structures.

For `Cc1cc(/C=C/c2ccccc2OCC(=O)O)n2c1C(c1ccc(NC(=O)CCl)cc1)=C1C=CC=[N+]1[B-]2(F)F` [BDNCA-128], the “Qunt. Yield” value was 0.02, the Abs was determined as 559 nm, the Flu-Abs amounted to 25 and the ε was 14,554. Also, the Flu stood at 584.

As to `CC1=CC(/C=C/c2ccc(O)c([N+](=O)[O-])c2)=[N+]2C1=C(c1ccc(NC(=O)CCl)cc1)c1cccn1[B-]2(F)F` [BDNCA-131], the “Qunt. Yield” value is “weak”, the Abs was 643 nm, the ε is on record as 18,124 and the Flu entry is “weak”.

`COc1ccc(/C=C/C2=[N+]3C(=C(c4ccc(NC(=O)CCl)cc4)c4cccn4[B-]3(F)F)C(C)=C2)cc1O` [BDNCA-132]: the “Qunt. Yield” value was 0.02, the Abs came to 569 nm, the Flu-Abs is on record as 30 and the ε is 36,796. This compound showed a Flu of 599.

As for `CC1=CC(/C=C/c2[nH]cnc2C)=[N+]2C1=C(c1ccc(NC(=O)CCl)cc1)c1cccn1[B-]2(F)F` [BDNCA-134], the “Qunt. Yield” value is “weak”, the Abs turned out to be 566 nm, the ε is 12,082 and the Flu entry is listed as “weak”.

On to `CC1=CC(/C=C/c2ccc(C)o2)=[N+]2C1=C(c1ccc(NC(=O)CCl)cc1)c1cccn1[B-]2(F)F` [BDNCA-135], for which the “Qunt. Yield” value is on record as 0.07, the Abs worked out at 577 nm, the Flu-Abs turned out to be 41 and the ε is 37,346. For the same compound, the Flu was 618.

Take `CC1=CC(/C=C/c2ccc3ccccc3c2)=[N+]2C1=C(c1ccc(NC(=O)CCl)cc1)c1cccn1[B-]2(F)F` [BDNCA-137]: the “Qunt. Yield” value stood at 0.10, the Abs is 564 nm, the Flu-Abs was determined as 20 and the ε is listed as 43,387. Besides, the Flu came out at 584.

As for `CC1=CC(/C=C/c2ccc3c(c2)OCO3)=[N+]2C1=C(c1ccc(NC(=O)CCl)cc1)c1cccn1[B-]2(F)F` [BDNCA-139], the “Qunt. Yield” value worked out at 0.09, the Abs came out at 568 nm, the Flu-Abs stood at 39 and the ε is reported as 35,423. Also, the Flu amounted to 607.

As for `CCCOc1ccc(/C=C/c2cc(C)c3n2[B-](F)(F)[N+]2=CC=CC2=C3c2ccc(NC(=O)CCl)cc2)cc1` [BDNCA-140], the “Qunt. Yield” value amounted to 0.07, the Abs was 566 nm, the Flu-Abs was found to be 32 and the ε is given as 27,185. This compound displayed a Flu of 598.

With `CC1=CC(/C=C/c2ccccc2C)=[N+]2C1=C(c1ccc(NC(=O)CCl)cc1)c1cccn1[B-]2(F)F` [BDNCA-143], the “Qunt. Yield” value worked out at 0.13, the Abs amounted to 555 nm, the Flu-Abs stood at 22 and the ε is recorded as 50,801. The compound also yielded a Flu of 577.

With `COc1cc(OC)c(OC)cc1/C=C/C1=[N+]2C(=C(c3ccc(NC(=O)CCl)cc3)c3cccn3[B-]2(F)F)C(C)=C1` [BDNCA-144], the “Qunt. Yield” value is given as “weak”, the Abs amounted to 585 nm, the ε is 62,609 and the Flu result is listed as “weak”.

For the compound `CC1=CC(/C=C/c2ccc(Cl)cc2Cl)=[N+]2C1=C(c1ccc(NC(=O)CCl)cc1)c1cccn1[B-]2(F)F` [BDNCA-147], the “Qunt. Yield” value is given as 0.07, the Abs worked out at 557 nm, the Flu-Abs is 21 and the ε is reported as 23,616. In addition, the Flu is 578.

Regarding `CC1=CC(/C=C/c2ccc(O)cc2)=[N+]2C1=C(c1ccc(NC(=O)CCl)cc1)c1cccn1[B-]2(F)F` [BDNCA-153], the “Qunt. Yield” value amounted to 0.05, the Abs amounted to 569 nm, the Flu-Abs came to 37 and the ε was 23,341. In addition, the Flu came out at 606.

Turning to `CC1=CC(/C=C/c2ccc(OCCCN(C)C)cc2)=[N+]2C1=C(c1ccc(NC(=O)CCl)cc1)c1cccn1[B-]2(F)F` [BDNCA-163], the “Qunt. Yield” value worked out at 0.04, the Abs turned out to be 566 nm, the Flu-Abs turned out to be 29 and the ε is on record as 24,165. The same compound yielded a Flu of 595.

Regarding `CC1=CC(/C=C/c2ccc(C(C)(C)C)cc2)=[N+]2C1=C(c1ccc(NC(=O)CCl)cc1)c1cccn1[B-]2(F)F` [BDNCA-177], the “Qunt. Yield” value is listed as 0.15, the Abs amounted to 558 nm, the Flu-Abs stood at 23 and the ε was 73,867. The compound further had a Flu of 581.

For the compound `COc1ccc(Oc2ccc(/C=C/c3cc(C)c4n3[B-](F)(F)[N+]3=CC=CC3=C4c3ccc(NC(=O)CCl)cc3)cc2)cc1` [BDNCA-178], the “Qunt. Yield” value is given as 0.09, the Abs is 563 nm, the Flu-Abs came out at 26 and the ε was 61,785. The Flu was determined as 589.

Consider `COC(=O)c1ccc(-c2ccc(/C=C/C3=[N+]4C(=C(c5ccc(NC(=O)CCl)cc5)c5cccn5[B-]4(F)F)C(C)=C3)cc2)cc1` [BDNCA-179], for which the “Qunt. Yield” value was 0.14, the Abs was 566 nm, the Flu-Abs is listed as 23 and the ε was 52,998. Moreover, the Flu is reported as 589.

In the case of `CC1=CC(/C=C/c2ccc(Cl)c(Cl)c2)=[N+]2C1=C(c1ccc(NC(=O)CCl)cc1)c1cccn1[B-]2(F)F` [BDNCA-182], the “Qunt. Yield” value turned out to be 0.08, the Abs amounted to 557 nm, the Flu-Abs worked out at 18 and the ε is on record as 37,620. The compound also had a Flu of 575.

For `CC1=CC(/C=C/c2c[nH]c3ccc(Br)cc23)=[N+]2C1=C(c1ccc(NC(=O)CCl)cc1)c1cccn1[B-]2(F)F` [BDNCA-185], the “Qunt. Yield” value came to 0.06, the Abs was determined as 581 nm, the Flu-Abs was 65 and the ε is listed as 29,931. In addition, the Flu is given as 646.

Take `COc1cccc(/C=C/C2=[N+]3C(=C(c4ccc(NC(=O)CCl)cc4)c4cccn4[B-]3(F)F)C(C)=C2)c1` [BDNCA-186]: the “Qunt. Yield” value is given as 0.14, the Abs amounted to 556 nm, the Flu-Abs was determined as 20 and the ε is reported as 61,510. Also, the Flu is 576.

Regarding `Cc1cc(/C=C/c2ccccc2C(=O)O)n2c1C(c1ccc(NC(=O)CCl)cc1)=C1C=CC=[N+]1[B-]2(F)F` [BDNCA-191], the “Qunt. Yield” value came to 0.06, the Abs came to 556 nm, the Flu-Abs is reported as 18 and the ε is 24,714. The compound also had a Flu of 574.

Take `COc1ccc(/C=C/c2cc(C)c3n2[B-](F)(F)[N+]2=CC=CC2=C3c2ccc(NC(=O)CCl)cc2)c(O)c1` [BDNCA-192]: the “Qunt. Yield” value stood at 0.03, the Abs came out at 577 nm, the Flu-Abs is 53 and the ε is reported as 21,693. The compound also registered a Flu of 630.

Regarding `COc1ccc(-c2ccc(/C=C/C3=[N+]4C(=C(c5ccc(NC(=O)CCl)cc5)c5cccn5[B-]4(F)F)C(C)=C3)o2)cc1Cl` [BDNCA-195], the “Qunt. Yield” value is reported as 0.01, the Abs was found to be 605 nm, the ε is reported as 21,968 and the Flu was found to be 681.

Regarding `COc1ccccc1/C=C/c1cc(C)c2n1[B-](F)(F)[N+]1=CC=CC1=C2c1ccc(NC(=O)CCl)cc1` [BDNCA-198], the “Qunt. Yield” value came out at 0.15, the Abs was determined as 561 nm, the Flu-Abs came out at 26 and the ε is listed as 76,064. Moreover, the Flu is 587.

For `CC1=CC(/C=C/c2ccc(-c3cncnc3)cc2)=[N+]2C1=C(c1ccc(NC(=O)CCl)cc1)c1cccn1[B-]2(F)F` [BDNCA-199], the “Qunt. Yield” value stood at 0.15, the Abs was 563 nm, the Flu-Abs came out at 20 and the ε is 59,314. The Flu is 583.

Regarding `C=CCOc1ccccc1/C=C/C1=[N+]2C(=C(c3ccc(NC(=O)CCl)cc3)c3cccn3[B-]2(F)F)C(C)=C1` [BDNCA-202], the “Qunt. Yield” value was 0.13, the Abs was found to be 561 nm, the Flu-Abs came to 24 and the ε is reported as 57,666. Besides, the Flu is on record as 585.

With `COc1ccc(/C=C/c2cc(C)c3n2[B-](F)(F)[N+]2=CC=CC2=C3c2ccc(NC(=O)CCl)cc2)c(OC)c1` [BDNCA-206], the “Qunt. Yield” value is recorded as 0.13, the Abs was determined as 574 nm, the Flu-Abs is given as 44 and the ε is reported as 44,485. The Flu worked out at 618.

`Cc1ccc(/C=C/c2cc(C)c3n2[B-](F)(F)[N+]2=CC=CC2=C3c2ccc(NC(=O)CCl)cc2)cc1` [BDNCA-208]: the “Qunt. Yield” value turned out to be 0.12, the Abs came out at 558 nm, the Flu-Abs was 23 and the ε is listed as 64,805. The Flu is 581.

Turning to `COc1cc(/C=C/C2=[N+]3C(=C(c4ccc(NC(=O)CCl)cc4)c4cccn4[B-]3(F)F)C(C)=C2)cc(OC)c1` [BDNCA-209], the “Qunt. Yield” value was 0.12, the Abs worked out at 556 nm, the Flu-Abs was determined as 20 and the ε is 62,334. Moreover, the Flu is listed as 576.

For the compound `COC(=O)c1ccc(/C=C/C2=[N+]3C(=C(c4ccc(NC(=O)CCl)cc4)c4cccn4[B-]3(F)F)C(C)=C2)cc1` [BDNCA-219], the “Qunt. Yield” value was 0.16, the Abs is 560 nm, the Flu-Abs is 21 and the ε is 73,043. The compound also had a Flu of 581.

`COc1cc(Cl)c(/C=C/C2=[N+]3C(=C(c4ccc(NC(=O)CCl)cc4)c4cccn4[B-]3(F)F)C(C)=C2)c(Cl)c1O` [BDNCA-220]: the “Qunt. Yield” value is reported as 0.01, the Abs was 559 nm, the Flu-Abs was 24 and the ε is listed as 40,915. The compound further displayed a Flu of 583.

The values are drawn from patent US9423396B2, “Bodipy structure fluorescence probes for diverse biological applications” (National University of Singapore, priority 2011, dated 2016).
